Laboratory results taken from ChEMBL document CHEMBL5316277, “Discovery of Spiro[pyrrolidine-3,3'-oxindole] LXRβ Agonists for the Treatment of Osteoporosis” (J Med Chem, 2023).
Activity calls are given as the source filed them. The rule behind the calls is not given here.

Test system: BMMC
Experiment: Cytotoxicity against C57BL/6 mouse bone marrow macrophage cells assessed as reduction in cell viability up to 10 uM incubated for 72 hrs by MTT assay
Type: toxicity, cell-based
Settings: not given

| SMILES | Activity |
| --- | --- |
| COC(=O)c1ccc(-c2cc(F)cc([C@H]3N(C(=O)OC(C)(C)C)CC[C@]34C(=O)Nc3ccccc34)c2)cc1S(C)(=O)=O | Non-Toxic |

Test system: BMMC
Experiment: Anti-osteoporosis activity in C57BL/6 mouse bone marrow macrophage cells assessed as inhibition of RANKL-induced osteoclastogenesis measured after 5 days in presence of MCSF by TRAP staining based assay
Type: functional, cell-based
Settings: C57BL/6, BMMC, 120 h

| SMILES | IC50 [µM] |
| --- | --- |
| COC(=O)Cc1ccc(-c2cc(F)cc([C@H]3N(C(=O)OC(C)(C)C)CC[C@]34C(=O)Nc3ccccc34)c2)cc1Cl | 3.4 |
| COC(=O)c1cn(C)c2cc(-c3cc(F)cc([C@H]4N(C(=O)OC(C)(C)C)CC[C@]45C(=O)Nc4ccccc45)c3)ccc12 | 1.56 |
| COC(=O)c1ccc(-c2cc(F)cc([C@H]3N(C(=O)OC(C)(C)C)CC[C@]34C(=O)Nc3ccccc34)c2)cc1Cl | 8.78 |
| COC(=O)Cn1ccc2cc(-c3cc(F)cc([C@H]4N(C(=O)OC(C)(C)C)CC[C@]45C(=O)Nc4ccccc45)c3)ccc21 | 3.4 |
| COC(=O)c1ccc(-c2cc(F)cc([C@H]3N(S(=O)(=O)C(C)C)CC[C@]34C(=O)N(C)c3ccccc34)c2)cc1S(C)(=O)=O | 0.2 |
| COC(=O)c1ccc(-c2cccc([C@H]3N(C(=O)OC(C)(C)C)CC[C@]34C(=O)N(C)c3ccccc34)c2)cc1S(C)(=O)=O | 0.2 |
| COC(=O)c1c[nH]c2cc(-c3cc(F)cc([C@H]4N(C(=O)OC(C)(C)C)CC[C@]45C(=O)Nc4ccccc45)c3)ccc12 | 2.89 |
| COC(=O)c1ccc(-c2cc(F)cc([C@H]3N(C(=O)OC(C)(C)C)CC[C@]34C(=O)N(C)c3ccccc34)c2)cc1S(C)(=O)=O | 2.17 |
| COCc1ccc(-c2cc(F)cc([C@H]3N(S(=O)(=O)C(C)C)CC[C@]34C(=O)N(C)c3ccccc34)c2)cc1S(C)(=O)=O | 0.2 |
| COCc1ccc(-c2cc(F)cc([C@H]3N(C(=O)OC(C)(C)C)CC[C@]34C(=O)N(C)c3ccccc34)c2)cc1S(C)(=O)=O | 0.22 |
| CC(C)(C)OC(=O)N1CC[C@]2(C(=O)Nc3ccccc32)[C@H]1c1cccc(-c2ccc(CO)c(S(C)(=O)=O)c2)c1 | 0.2 |
| COC(=O)c1c(F)cc(-c2cc(F)cc([C@H]3N(C(=O)OC(C)(C)C)CC[C@]34C(=O)Nc3ccccc34)c2)cc1F | 4.14 |
| CC(C)(C)CC(=O)N1CC[C@]2(C(=O)Nc3ccccc32)[C@H]1c1cccc(-c2ccc(CO)c(S(C)(=O)=O)c2)c1 | 0.36 |

Test system: BMMC
Experiment: Anti-osteoporosis activity in C57BL/6 mouse bone marrow macrophage cells assessed as inhibition of RANKL-induced osteoclastogenesis at more than 10 uM measured after 5 days in presence of MCSF by TRAP staining based assay
Type: functional, cell-based
Settings: time 5.0 day

| SMILES | inhibition |
| --- | --- |
| CC(C)(C)OC(=O)N1CC[C@]2(C(=O)Nc3ccccc32)[C@H]1c1cc(F)cc(-c2ccc(CC(=O)O)c(Cl)c2)c1 | inactive |
| CC(C)(C)OC(=O)N1CC[C@]2(C(=O)Nc3ccccc32)[C@H]1c1cc(F)cc(-c2ccc(C(=O)O)c(S(C)(=O)=O)c2)c1 | inactive |
